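48-hour exposure; five concentrations; linearly interpolated endpoints. GI50 marks 50% less growth. TGI: concentration producing complete growth inhibition.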
Assays:
Test in all cases: inhibition of tumour cell growth, NCI panel, 48 h
BT-549 breast = system: BT-549 breast
HS 578T breast = system: HS 578T breast
K-562 leukemia = system: K-562 leukemia
MALME-3M melanoma = system: MALME-3M melanoma
MDA-MB-435 = system: MDA-MB-435
MOLT-4 leukemia = system: MOLT-4 leukemia
OVCAR-5 ovarian = system: OVCAR-5 ovarian
OVCAR-8 ovarian = system: OVCAR-8 ovarian
SK-MEL-2 melanoma = system: SK-MEL-2 melanoma
SW-620 colon = system: SW-620 colon

| SMILES | GI50 (BT-549 breast) [µM] | TGI (BT-549 breast) [µM] | GI50 (HS 578T breast) [µM] | TGI (HS 578T breast) [µM] | GI50 (K-562 leukemia) [µM] | TGI (K-562 leukemia) [µM] | GI50 (MALME-3M melanoma) [µM] | TGI (MALME-3M melanoma) [µM] | GI50 (MDA-MB-435) [µM] | TGI (MDA-MB-435) [µM] | GI50 (MOLT-4 leukemia) [µM] | TGI (MOLT-4 leukemia) [µM] | GI50 (OVCAR-5 ovarian) [µM] | TGI (OVCAR-5 ovarian) [µM] | GI50 (OVCAR-8 ovarian) [µM] | TGI (OVCAR-8 ovarian) [µM] | GI50 (SK-MEL-2 melanoma) [µM] | TGI (SK-MEL-2 melanoma) [µM] | GI50 (SW-620 colon) [µM] | TGI (SW-620 colon) [µM] |
| --- | --- | --- | --- | --- | --- | --- | --- | --- | --- | --- | --- | --- | --- | --- | --- | --- | --- | --- | --- | --- |
| O=C(CC(=O)c1ccccc1)c1ccccc1 | 9.37 | 34.3 | 25.4 | > 100 | 8.31 | > 100 | 23.2 | 64.1 | 29.3 | > 100 | 17.3 | > 100 | 25.6 | > 100 | 20.4 | > 100 | 87 | > 100 | 13.2 | > 100 |
| Oc1ccc(Cl)cc1-c1cc(-c2ccc(F)cc2)n[nH]1 | 3.59 | 16.6 | 1.71 | 6.65 | 2.8 | 27.1 | 3.26 | 9.66 | 2.53 | 10.7 | 2.8 | 41.4 | 5.39 | > 100 | 1.85 | 5.39 | 4.11 | 19.3 | 2.64 | 10.5 |
| O=C(Nc1cc(-c2cccnc2)nc(NCCCN2CCOCC2)n1)c1cc(Br)cc(C(F)(F)F)c1 | 3.27 | 15 | 2.71 | 8.51 | 2.8 | 21.7 | 1.76 | 3.58 | 1.66 | 3.15 | 3.63 | 13.1 | 6.33 | 23.5 | 2.98 | 8.59 | 4.52 | 17 | 2.25 | 5.48 |
| O=C1c2ccccc2-c2c1c1ccccc1c(=O)n2-c1ccccc1 |  | > 52 |  | > 87.4 |  | > 100 |  | > 100 |  | > 100 |  | > 100 |  | > 100 |  | 27.4 |  | 50.6 |  | > 100 |
| O=C(c1ccccc1)C1C(C(=O)c2ccccc2)C(c2ccccc2)N(c2ccccc2)C1c1ccccc1 (stereo not given) |  | > 100 |  | > 100 |  | > 100 |  | > 100 |  | > 100 |  | > 100 |  | > 100 |  | > 100 |  | > 100 |  | > 100 |
| N#Cc1c2c(c(-c3cccs3)n(C3OC(CO)C(O)C(O)C3O)c1=S)CCc1ccccc1-2 (stereo not given) |  | > 100 |  | > 100 |  | > 100 |  | > 100 |  | > 100 |  | > 100 |  | > 100 |  | > 100 |  | > 100 |  | > 100 |
| COc1cc([C@@H]2c3cc4c(cc3C(OC3O[C@@H]5COC(C)O[C@H]5[C@H](O)[C@H]3O)C3COC(=O)[C@@H]32)OCO4)cc(OC)c1O (stereo not given in full) | 1.66 | > 29.2 | 1.97 | > 31.8 | 1.53 | > 30.3 | 1.21 | 14.1 | 3.89 | > 50 | 0.0948 | 0.882 | 11 | > 50 | 1.56 | > 34.8 | 7.37 | 31.9 | 0.67 | > 27.2 |
| COc1cccc(C2=C(c3cn(C)c4cccc(OC)c34)C(=O)NC2=O)c1 | 12.9 | > 25 | 8.93 | > 25 | 3.51 | > 25 | > 16.6 | > 25 | 0.832 | > 9.17 | 12.5 | > 25 | > 23.5 | > 25 | 18.5 | > 25 | 7.75 | > 25 | 6.89 | > 25 |
| Oc1c(CN2CCOCC2)cc(COCc2ccccc2)c2cccnc12 | 3.19 | 81.8 | 19.4 | > 100 | 2.74 | > 100 | 2.84 | > 100 | 6.5 | > 100 | 2.57 | 17.7 | 5.08 | > 100 | 2.8 | > 100 | 3.22 | 59.1 | 3.61 | > 100 |
| c1ccc2nc(OCCN3CC3)ccc2c1 | 20.7 | 37.7 | 20.3 | 62.2 | 3.06 | 24 | 16.6 | 43.6 | 3.31 | 17.9 | 4.04 | 59 | 17.1 | 31.5 | 14 | 31.4 | 13.5 | 31.6 | 1.97 | 5.43 |
| O=C(Nc1ccc(I)cc1F)c1cc(I)ccc1O | 0.548 | 2.48 | 0.617 | 3.95 | 0.434 | > 100 | 0.32 | 1.52 | 0.723 | 7.9 | 0.965 | 3.5 | 3.05 | > 100 | 0.802 | > 100 | 0.319 | 1.59 | 0.866 | > 36 |
| ClCC#CCSc1ncnc2c1ncn2CC#CCCl | 1.61 | 3.02 | 2.41 | 9.8 | 3.15 | 40.4 | 1.88 | 6.42 | 2.27 | 9.04 | 2.68 | 14.1 | 1.73 | 3.34 | 1.78 | 5.24 | 1.75 | 4.79 | 2.17 | 4.79 |
| CC(=O)N1CCN(CCOc2ccc(C3CCN(C4=Nn5c(nnc5C(F)(F)F)CC4)CC3)cc2)CC1 | 26.2 | > 100 | 5.43 | > 100 | 8.25 | > 100 | 9.89 | 99.6 | 10.2 | > 100 | 27 | > 100 | 89.4 | > 100 | 36 | > 100 | 33.7 | > 100 | > 100 | > 100 |
| O=C(CCl)Nc1cc(O)c2c(c1)C(=O)c1cccc(O)c1C2=O | 1.24 | 3.3 | 2.46 | 10.6 | 0.353 | 4.22 | 0.897 | 2.58 | 1.95 | 4.72 | 0.321 | 1.76 | 2.32 | 5.19 | 2.09 | 7.65 | 1.49 | 3.93 | 1.1 | 3.95 |

Source: PubChem BioAssay (NCI)
